Test results: patent US8178506B2, “Oligomeric compounds and compositions for use in modulation of small non-coding RNAs” (Regulus Therapeutics Inc., priority 2003, dated 2012)
Entries after “also recorded” stand apart in the source; their conditions may differ. In the oligonucleotide strings, read from the 5' end, every base follows the letter of its sugar. An asterisk marks phosphorothioate; unmarked linkages are phosphodiester. Other units and linkages are bracketed, terminal groups are in braces. A string of capitals states the bases alone. e = 2'-O-(2-methoxyethyl) (MOE); [5mC] = 5-methylcytosine

Key:
aP2 = aP2 mRNA expression in adipocytes (real-time PCR); assay type: cell-based, human; conditions: for AP2 (mRNA expression): adipocytes, 250 nM oligomeric compound, day nine post-transfection, relative to control (1.0), Table 16
[1] = tested on: BJ, B16-F10, T47D, T47Dp53 and HeLa cells; assay: Cell cycle assay (propidium iodide flow cytometry), cell line panel; assay type: cell-based; conditions: 150 nM oligomeric compound, 4.5 μg/ml LIPOFECTIN, after 72 hours, propidium iodide flow cytometry
HSL = HSL mRNA expression in adipocytes (real-time PCR); assay type: cell-based, human; conditions: for HSL (mRNA expression): adipocytes, 250 nM oligomeric compound, day nine post-transfection, relative to control (1.0), Table 16
PPARγ = PPARγ mRNA expression in adipocytes (real-time PCR); assay type: cell-based, human; conditions: for PPAR gamma (mRNA expression): adipocytes, 250 nM oligomeric compound, day nine post-transfection, relative to control (1.0), Table 16
Glut4 = Glut4 mRNA expression in adipocytes (real-time PCR); assay type: cell-based, human; conditions: for Glut4 (mRNA expression): adipocytes, 250 nM oligomeric compound, day nine post-transfection, relative to control (1.0), Table 16
adipocytes = assay: Triglyceride accumulation assay in adipocytes; assay type: cell-based, human
T47D cells = assay: Caspase-3 activity assay (apoptosis) in T47D cells; conditions: T47D cells, 48 hours; for Fold Increase over UTC (caspase-3 activity, apoptosis): 200 nM oligomeric compound
preadipocytes = assay: Caspase assay in preadipocytes; assay type: cell-based, human; conditions: untreated control set equal to 1.0
From the text: The effect of oligomeric compounds of the present invention targeting miRNAs was examined in preadipocytes (Zen-Bio, Inc., Research Triangle Park, N.C.) using the fluorometric caspase assay previously described in Example 11.

mir-15a pri-miRNA = mir-15a pri-miRNA expression in T47D cells (real-time RT-PCR); assay type: cell-based, human; conditions: 100 nM
From the text: The gapmer oligomeric compounds targeting the mir-15b and mir-15-a-1 mature miRNAs described above were also transfected into T47D cells according to standard procedures. In addition, uniform 2′-MOE and 2′-MOE gapmer oligomeric compounds targeting the mature mir-15a-1 and mir-15b miRNAs were also transfected into T47D cells, for analysis of their effects on mir-15a-1 and mir-15b pri-miRNA levels. The oligomeric compounds ISIS Number 327927 (SEQ ID NO: 345), a uniform 2′-MOE compound and ISIS Number 345391 (SEQ ID NO: 345), a 2′-MOE 5-10-7 gapmer compound, both target mir-15b. The oligomeric compounds ISIS Number 327951 (SEQ ID NO: 369), a uniform 2′-MOE compound, and ISIS Number 345411 (SEQ ID NO: 369), a 2′-MOE 5-10-7 gapmer compound, both target mir-15a-1. Oligomeric compounds ISIS Number 129686 ([…]; SEQ ID NO: 901), and ISIS Number 129691 ([…]; SEQ ID NO:902), both universal scrambled controls, as well as ISIS Number 116847 ([…]; SEQ ID NO: 844) targeting an unrelated gene, PTEN, were used as negative controls. ISIS Numbers 129686, 129691, and 116847 are phosphorothiated 2′-MOE 5-10-5 gapmers, and all cytosines are 5-methylcytosines. T47D cells (seeded in 12-well plates) were treated with these oligomeric compounds, and RNA was isolated from the treated cells by lysing in 1 mL TRIZOL™ (Invitrogen) and total RNA was prepared using the manufacturer's recommended protocols. To assess the effects of these compounds on expression of the mir-15a or mir-15b pri-miRNA molecules, real-time RT-PCR analysis was performed using either the primer/probe set specific for the mir-15a pri-miRNA molecule described above, or a primer probe set specific for the mir-15b pri-miRNA molecule: ISIS 339320 ([…]; SEQ ID NO: 903) was used as the forward primer for the mir-15b pri-miRNA, ISIS 339321 ([…] ACTGT; SEQ ID NO: 904) was used as the reverse primer for the mir-15b pri-miRNA, and ISIS 339322 ([…]; SEQ ID NO: 905) was used as the probe. Total RNA was quantified using RiboGreen™ RNA quantification reagent (Molecular Probes, Inc. Eugene, Oreg.), expression levels observed for each target were normalized to 5.8S rRNA, and values are expressed relative to the untreated control. Inhibition of expression of the mir15a or mir-15b pri-miRNA molecules upon treatment with these oligomeric compounds is was assessed and expressed as a percentage of RNA levels in untreated control cells.
Using the real-time RT-PCR methods described, the expression levels of the mir-15a pri-miRNA were compared in T47D cells treated with the nested series of uniform 2′-MOE oligomeric compounds, targeting and spanning the entire length of the mir-15a pri-miRNA. The region encompassing the mir-15a primary transcript (the complement of nucleotides 31603159 to 31603468 of GenBank Accession number NT—024524.13; AAATAATTATG […]) is incorporated herein as SEQ ID NO: 906. ISIS Number 356215 (SEQ ID NO: 879) targets a region flanking and immediately 5′ to the predicted 5′ Drosha cleavage site in the mir-15a pri-miRNA. ISIS Number 356218 (SEQ ID NO: 881) targets aregion in the loop of the mir-15a pri-miRNA. ISIS 356227 (SEQ ID NO: 883) targets a region flanking and immediately 3′ to the predicted 3′ Drosha cleavage site in the mir-15a pri-miRNA. Additionally, oligomeric compound ISIS 327951 (SEQ ID NO: 369), a uniform 2′-MOE compound targeting the mature mir-15a-1 miRNA, was tested for comparison. Oligomeric compounds ISIS 327901 (SEQ ID NO: 319) targeting the mature mir-143 miRNA; ISIS 129690, ([…]; SEQ ID NO: 907), a phosphorothioate 5-10-5 MOE gapmer used as a universal scrambled control; and ISIS 116847 ([…]; SEQ ID NO: 844), a uniform 5-10-52′-MOE gapmer targeting an unrelated gene, PTEN, were used as negative controls. Using the transfection methods previously described, T47D cells were treated with 100 nM of each of these oligomeric compounds. […]

HuVECs = assay: Endothelial tube formation assay in HuVECs; conditions: 75 nM oligomeric compound
leptin = assay: Leptin secretion by adipocytes (ELISA); assay type: cell-based, human; conditions: adipocytes, 250 nM oligomeric compound, day nine post-transfection, relative to control (1.0); Table 16
Method: Leptin secretion into the medium in which adipocytes are cultured is measured by protein ELISA. On day nine post-transfection, 96-well plates are coated with a monoclonal antibody to human leptin (R&D Systems, Minneapolis, Minn.) and left at 4° C. overnight. The plates are blocked with bovine serum albumin (BSA), and a dilution of the treated adipoctye medium is incubated in the plate at room temperature for approximately 2 hours. After washing to remove unbound components, a second monoclonal antibody to human leptin (conjugated with biotin) is added. The plate is then incubated with strepavidin-conjugated horse radish peroxidase (HRP) and enzyme levels are determined by incubation with 3, 3′,5,5′-tetramethlybenzidine, which turns blue when cleaved by HRP. The OD450 is read for each well, where the dye absorbance is proportional to the leptin concentration in the cell lysate.
Leptin is also a marker for differentiated adipocytes. In the adipocyte assay, leptin secretion into the media above the differentiated adipocytes was measured by protein ELISA. Cell growth, transfection and differentiation procedures were carried out as described for the Triglyceride accumulation assay (see below). On day nine post-transfection, 96-well plates were coated with a monoclonal antibody to human leptin (R&D Systems, Minneapolis, Minn.) and left at 4° C. overnight. The plates were blocked with bovine serum albumin (BSA), and a dilution of the media was incubated in the plate at RT for 2 hours. After washing to remove unbound components, a second monoclonal antibody to human leptin (conjugated with biotin) was added. The plate was then incubated with strepavidin-conjugated horseradish peroxidase (HRP) and enzyme levels are determined by incubation with 3, 3′, 5,5′-Tetramethlybenzidine, which turns blue when cleaved by HRP. The OD450 was read for each well, where the dye absorbance is proportional to the leptin concentration in the cell lysate. Results are expressed as a percent±standard deviation relative to transfectant-only controls.

[2] = differentiating adipocytes transfected with oligomeric compound
[3] = adipocytes, 250 nM oligomeric compound, relative to control (1.0), Table 16

Row | Substance | Fold Increase over UTC (caspase activity) (preadipocytes) | % Activity Relative to UTC (tube formation) (HuVECs; Table 58) | AP2 (mRNA expression) (aP2) | HSL (mRNA expression) (HSL) | PPAR gamma (mRNA expression) (PPARγ) | Glut4 (mRNA expression) (Glut4) | Leptin (secretion) (leptin) | TG (triglyceride accumulation) (adipocytes; [3]) | other results
1 | NNNNNNNNNNNNNNNNNNNN [ISIS 29848, reference compound] | 1.2 fold over UTC | – | – | – | – | – | – | – | AP2 mRNA (aP2; [2]): 89 percentage of untreated control (UTC); G1 (percentage of cells in phase of the cell cycle) [1]: 57.8%; G2/M (percentage of cells in phase of the cell cycle) [1]: 15.6%; S (percentage of cells in phase of the cell cycle) [1]: 26.5%; SubG1 (percentage of cells in phase of the cell cycle) [1]: 9.6%; aneuploid (percentage of cells) [1]: 12%; HSL mRNA (HSL; [2]): 84 percentage of untreated control (UTC); PPAR gamma mRNA (PPARγ; [2]): 100 percentage of untreated control (UTC); GLUT4 mRNA (Glut4; [2]): 96 percentage of untreated control (UTC); TG (triglyceride accumulation) (adipocytes; [2]): 89 percentage of untreated control (UTC); Fold Increase over UTC (caspase-3 activity, apoptosis) (T47D cells; experiment of Table 10): 3.0 fold; Fold Increase over UTC (caspase-3 activity, apoptosis) (T47D cells; experiment of Table 11): 3.2 fold; Fold Increase over UTC (caspase-3 activity, apoptosis) (T47D cells; experiment of Table 12): 3.5 fold; Fold Increase over UTC (caspase activity) (T47D cells; 200 nM, relative to untreated control): 3.5
2 | ISIS 356227: uniform 2′-MOE PS; SEQ ID NO: 883; region immediately 3′ to 3′ Drosha cleavage site of mir-15a pri-miRNA (antisense eT*e[5mC]*e[5mC]*eT*eT*eG*eT*eA*eT*eT*eT*eT*eT*eG*eA*eG*eG*e[5mC]*eA*eG) [uniform 2′-MOE PS; region immediately 3′ to 3′ Drosha cleavage site of mir-15a pri-miRNA] | – | – | – | – | – | – | – | – | levels of the mir-15a pri-miRNA molecule (mir-15a pri-miRNA): stimulate an increase in levels of the mir-15a pri-miRNA molecule; also recorded: stimulate the greatest increases in expression of the mir-15a pri-miRNA
3 | 327942 (antisense e[5mC]*e[5mC]*eA*eT*e[5mC]*eT*eT*eT*eA*e[5mC]*e[5mC]*eA*eG*eA*e[5mC]*eA*eG*eT*eG*eT*eT) [compound 327942] | 1.0 fold over UTC | 74.1% | 0.82 | 0.79 | 0.87 | 0.66 | 2.03 | 0.85 | –
4 | ISIS 356229: uniform 2′-MOE PS; SEQ ID NO: 884; targets mir-15a pri-miRNA (antisense eA*eG*eA*eT*e[5mC]*eA*eG*eA*eT*e[5mC]*e[5mC]*eT*eT*eG*eT*eA*eT*eT*eT*eT) [uniform 2′-MOE PS; targets mir-15a pri-miRNA] | – | – | – | – | – | – | – | – | levels of the mir-15a pri-miRNA molecule (mir-15a pri-miRNA): stimulate an increase in levels of the mir-15a pri-miRNA molecule
5 | 327930 (antisense eA*e[5mC]*eT*eA*eT*eA*e[5mC]*eA*eA*e[5mC]*e[5mC]*eT*e[5mC]*e[5mC]*eT*eA*e[5mC]*e[5mC]*eT*e[5mC]*eA) [compound 327930] | 1.4 fold over UTC | 88.9% | 0.86 | 0.89 | 0.98 | 1.01 | 0.95 | 0.97 | –
6 | 327926 (antisense eA*e[5mC]*eT*eA*eT*eG*e[5mC]*eA*eA*e[5mC]*e[5mC]*eT*eA*e[5mC]*eT*eA*e[5mC]*e[5mC]*eT*e[5mC]*eT) [compound 327926] | 1.8 fold over UTC | 96.3% | 0.85 | 0.82 | 0.93 | 1.10 | 1.47 | 1.06 | –
7 | 327938 (antisense eA*eA*e[5mC]*eA*eA*eT*eA*e[5mC]*eA*eA*e[5mC]*eT*eT*eA*e[5mC]*eT*eA*e[5mC]*e[5mC]*eT*e[5mC]*eA) [compound 327938] | 1.0 fold over UTC | 96.3% | 0.86 | 0.85 | 0.90 | 0.80 | 1.35 | 1.05 | –
8 | 327955 (antisense eG*e[5mC]*e[5mC]*e[5mC]*eT*eT*eT*e[5mC]*eA*eT*e[5mC]*eA*eT*eT*eG*e[5mC]*eA*e[5mC]*eT*eG) [compound 327955] | 4.3 fold over UTC | – | 0.74 | 0.82 | 0.92 | 0.45 | 1.22 | 0.81 | % Activity Relative to UTC (tube formation) (HuVECs; Table 59): 46.7%
